Assay results reported in patent publication US11325899B2, “Benzofurane and benzothiophene derivatives as PGE2 receptor modulators” (IDORSIA PHARMACEUTICALS LTD, priority 2017, dated 2022).

What was measured:
PTGER2 (EP2) = molecular target: T1, PTGER2 (EP2) (Homo sapiens, UniProt P43116); assay: hEP2 b-arrestin assay (PathHunter HEK 293 PTGER2 b-arrestin cells); assay type: cell-based; conditions: antagonistic activity, beta-arrestin assay; read-out: hEP2 b-arr IC50
T1 construct: host or cells: HEK 293 (PathHunter PTGER2 b-arrestin cell line)
T1 sequence (P43116 whole entry): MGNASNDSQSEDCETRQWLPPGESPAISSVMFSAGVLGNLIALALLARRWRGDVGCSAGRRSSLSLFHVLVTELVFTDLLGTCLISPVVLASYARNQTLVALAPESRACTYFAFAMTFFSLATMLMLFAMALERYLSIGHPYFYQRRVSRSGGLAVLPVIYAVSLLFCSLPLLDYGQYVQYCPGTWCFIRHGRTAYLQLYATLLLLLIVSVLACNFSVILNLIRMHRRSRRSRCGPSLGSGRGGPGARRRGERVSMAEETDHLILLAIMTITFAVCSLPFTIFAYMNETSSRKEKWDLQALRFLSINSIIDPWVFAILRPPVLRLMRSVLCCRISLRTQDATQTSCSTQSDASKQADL
Outline: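 Antagonism measured as inhibition of PGE2-driven β-arrestin 2 recruitment (enzyme fragment complementation, luminescence) in engineered HEK293 EP2 cells. Agonist: 5 μM PGE2, ~EC80, 120 min at 37 °C after 15 min compound preincubation; test range 10 μM-2 nM or 1 μM-0.2 nM, duplicates, IC50 fitted.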

EP2 receptor = molecular target: T2, EP2 receptor (Homo sapiens, UniProt P43116); assay: hEP2 cAMP assay (SF295 glioblastoma cells, HTRF cAMP, PGE2 stimulation); assay type: cell-based; conditions: antagonistic activity
T2 construct: SF295 glioblastoma cells express high endogenous EP2 and no EP4; host or cells: SF295 glioblastoma cells
T2 sequence (P43116 whole entry): as above
Outline: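 HTRF cAMP readout gave % cAMP relative to DMSO, fitted to IC50 with duplicate points. Compounds were preincubated 45 min at room temperature with EP2-expressing, EP4-negative SF295 cells in IBMX (2 mM)-containing buffer before a 30 min challenge with PGE2 at 75 nM final, its EC80.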

IC50 (PTGER2 (EP2)) [nM] | IC50 (EP2 receptor) [nM] | Compound
4 | 4 | CSc1cc(-c2cc(NCCc3c(C#N)sc4c(C)cc(F)cc34)ncn2)ccc1C(=O)O [Example 12, 4-{6-[2-(2-Cyano-5-fluoro-7-methyl-benzo[b]thiophen-3-yl)-ethylamino]-pyrimidin-4-yl}-2-methylsulfanyl-benzoic acid]
59 | 275 | Cc1cc(F)cc2c(CCNc3cc(-c4ccc(CC(=O)O)c(OC(C)C)c4)ncn3)c(C#N)sc12 [Example 171, (4-{6-[2-(2-Cyano-5-fluoro-7-methyl-benzo[b]thiophen-3-yl)-ethylamino]-pyrimidin-4-yl}-2-isopropoxy-phenyl)-acetic acid]
28 | 129 | CCOc1cc(-c2cc(NCCc3c(C#N)sc4c(C)cc(F)cc34)ncn2)cc(F)c1CC(=O)O [Example 165, (4-{6-[2-(2-Cyano-5-fluoro-7-methyl-benzo[b]thiophen-3-yl)-ethylamino]-pyrimidin-4-yl}-2-ethoxy-6-fluoro-phenyl)-acetic acid]
504 | 348 | CCOc1cc(-c2cc(NCCc3c(C#N)sc4c(OC)cccc34)ncn2)ccc1CC(=O)O [Example 164, (4-{6-[2-(2-Cyano-7-methoxy-benzo[b]thiophen-3-yl)-ethylamino]-pyrimidin-4-yl}-2-ethoxy-phenyl)-acetic acid]
26 | 54 | CCCOc1cc(-c2cc(NCCc3c(C)sc4c(Cl)ccc(Cl)c34)ncn2)ccc1C(=O)O [Example 102, 4-{6-[2-(4,7-Dichloro-2-methyl-benzo[b]thiophen-3-yl)-ethylamino]-pyrimidin-4-yl}-2-propoxy-benzoic acid]
21 | 119 | CCOc1cc(-c2cc(NCCc3c(C)sc4c(C)c(F)ccc34)ncn2)ccc1OCC(=O)O [Example 119, (2-Ethoxy-4-{6-[2-(6-fluoro-2,7-dimethyl-benzo[b]thiophen-3-yl)-ethylamino]-pyrimidin-4-yl}-phenoxy)-acetic acid]
6 | 4 | CCOc1cc(-c2cc(NCCc3c(C)sc4c(C)cc(F)cc34)ncn2)sc1-c1nnn[nH]1 [Example 158, {6-[4-Ethoxy-5-(1H-tetrazol-5-yl)-thiophen-2-yl]-pyrimidin-4-yl}-[2-(5-fluoro-2,7-dimethyl-benzo[b]thiophen-3-yl)-ethyl]-amine]
5 | 30 | CCCOc1cc(-c2cc(NCCc3c(C)sc4c(C)c(F)ccc34)ncn2)ccc1C(=O)O [Example 99, 4-{6-[2-(6-Fluoro-2,7-dimethyl-benzo[b]thiophen-3-yl)-ethylamino]-pyrimidin-4-yl}-2-propoxy-benzoic acid]
5 | 10 | CCOc1cc(-c2cc(NCCc3c(C)sc4c(C)cc(F)cc34)ncn2)sc1C(=O)NS(N)(=O)=O [Example 156, 3-Ethoxy-5-(6-((2-(5-fluoro-2,7-dimethylbenzo[b]thiophen-3-yl)ethyl)amino)pyrimidin-4-yl)-N-sulfamoylthiophene-2-carboxamide]
25 | 160 | CCOc1cc(-c2cc(NCCc3c(C)sc4c(C)cc(F)cc34)ncn2)ccc1CC(=O)O [Example 110, (2-Ethoxy-4-{6-[2-(5-fluoro-2,7-dimethyl-benzo[b]thiophen-3-yl)-ethylamino]-pyrimidin-4-yl}-phenyl)-acetic acid]
104 | 233 | CCOc1cc(-c2cc(NCCc3c(C)sc4c(C)cccc34)ncn2)ccc1C(C)C(=O)O (racemic) [Example 126, rac-2-(4-{6-[2-(2,7-Dimethyl-benzo[b]thiophen-3-yl)-ethylamino]-pyrimidin-4-yl}-2-ethoxy-phenyl)-propionic acid]
27 | 155 | CCOc1cc(-c2cc(NCCc3c(C)oc4c(OC)cc(Cl)cc34)ncn2)ccc1OCC(=O)O [Example 121, (4-{6-[2-(5-Chloro-7-methoxy-2-methyl-benzofuran-3-yl)-ethylamino]-pyrimidin-4-yl}-2-ethoxy-phenoxy)-acetic acid]
33 | 157 | CCOc1cc(-c2cc(NCCc3c(C)sc4c(OC)ccc(F)c34)ncn2)ccc1CC(=O)O [Example 105, (2-Ethoxy-4-{6-[2-(4-fluoro-7-methoxy-2-methyl-benzo[b]thiophen-3-yl)-ethylamino]-pyrimidin-4-yl}-phenyl)-acetic acid]
16 | 8 | Cc1sc2c(C)cc(F)cc2c1CCNc1cc(-c2ccc(C(=O)O)c(OC(F)F)c2)ncn1 [Example 115, 2-Difluoromethoxy-4-{6-[2-(5-fluoro-2,7-dimethyl-benzo[b]thiophen-3-yl)-ethylamino]-pyrimidin-4-yl}-benzoic acid]
5 | 11 | CCCc1cc(-c2cc(NCCc3c(C#N)sc4c(C)cc(F)cc34)ncn2)ccc1C(=O)O [Example 167, 4-{6-[2-(2-Cyano-5-fluoro-7-methyl-benzo[b]thiophen-3-yl)-ethylamino]-pyrimidin-4-yl}-2-propyl-benzoic acid]
28 | 274 | CCCOc1cc(-c2cc(NCCc3c(C)sc4c(C)cc(F)cc34)ncn2)ccc1CC(=O)O [Example 190, (4-{6-[2-(5-Fluoro-2,7-dimethyl-benzo[b]thiophen-3-yl)-ethylamino]-pyrimidin-4-yl}-2-propoxy-phenyl)-acetic acid]
31 | 183 | Cc1sc2c(C)cccc2c1CCNc1cc(-c2ccc(C(=O)O)c(SCC(C)C)c2)ncn1 [Example 166, 4-{6-[2-(2,7-Dimethyl-benzo[b]thiophen-3-yl)-ethylamino]-pyrimidin-4-yl}-2-isobutylsulfanyl-benzoic acid]

Compound | IC50 (PTGER2 (EP2)) [nM] | IC50 (EP2 receptor) [nM]
COc1cc(Cl)cc2c(CCNc3cc(-c4ccc(C(=O)O)c(OC5CCC5)c4F)ncn3)c(C)oc12 [Example 147, 4-{6-[2-(5-Chloro-7-methoxy-2-methyl-benzofuran-3-yl)-ethylamino]-pyrimidin-4-yl}-2-cyclobutoxy-3-fluoro-benzoic acid] | 213 | 117
Cc1sc2c(C)ccc(F)c2c1CCNc1cc(-c2cc(F)c(C(=O)O)c(OC3CCC3)c2)ncn1 [Example 148, 2-Cyclobutoxy-6-fluoro-4-{6-[2-(4-fluoro-2,7-dimethyl-benzo[b]thiophen-3-yl)-ethylamino]-pyrimidin-4-yl}-benzoic acid] | 30 | 109
COc1cc(F)c(F)c2c(CCNc3cc(-c4ccc(C(=O)O)c(OC5CCC5)c4)ncn3)c(C)oc12 [Example 141, 2-Cyclobutoxy-4-{6-[2-(4,5-difluoro-7-methoxy-2-methyl-benzofuran-3-yl)-ethylamino]-pyrimidin-4-yl}-benzoic acid] | 140 | 111
CCCCOc1cc(-c2cc(NCCc3c(C)sc4c(C)cc(F)cc34)ncn2)ccc1C(=O)O [Example 127, 2-Butoxy-4-{6-[2-(5-fluoro-2,7-dimethyl-benzo[b]thiophen-3-yl)-ethylamino]-pyrimidin-4-yl}-benzoic acid] | 16 | 106
COc1cc(Cl)cc2c(CCNc3cc(-c4ccc(C(=O)O)c(OC5CCC5)c4)ncn3)c(C)oc12 [Example 133, 4-{6-[2-(5-Chloro-7-methoxy-2-methyl-benzofuran-3-yl)-ethylamino]-pyrimidin-4-yl}-2-cyclobutoxy-benzoic acid] | 25 | 68
